Assay in all cases: MBIC/MIC secondary assay
Common to all, as to assay type: cell-based

For test [1], the system named is Pseudomonas aeruginosa PAO1. The following applies: for MIC: Pseudomonas aeruginosa, PAO1. The method, then:
(§1) Assays for detecting and measuring bacterial biofilm formation are known in the art. An example of a biofilm formation assay useful in detecting and characterizing biofilm inhibitor compounds is described in Example 1, infra. Briefly, bacterial cells are inoculated into growth medium in individual wells of a 96-well assay plate in the presence or absence of a compound (known biofilm inhibitor or test compound). After incubation for a specified time, growth medium and non-biofilm bacterial cells are removed from each of the wells. The bacterial cells in any biofilms that are adhered to the surface of a well are fixed by addition of ethanol. The ethanol is removed, and the fixed biofilm bacteria cells are stained with crystal violet (CV). The intensity of CV staining is directly correlated with bacterial biofilm formation and is measured in the wells by reading the optical density at 600 nm (OD600). The difference in biofilm formation between untreated control and treated cultures provides an indication of relative biofilm inhibition activity (anti-biofilm activity). Use of different concentrations of an inhibitor in multiple and otherwise duplicate cultures permits determination of a compound's Minimal Biofilm Inhibitory Concentration (MBIC), which is defined herein as the lowest concentration of a compound that inhibits biofilm formation by at least 80% (i.e., ≧80%) compared to untreated control cultures. […]
(§2) A secondary assay provided a quantitative measure of both anti-biofilm activity and antibacterial activity in terms of the Minimal Biofilm Inhibitory Concentration (MBIC) and the Minimal Inhibitory Concentration (MIC), respectively. The MBIC and MIC are defined as the lowest compound concentrations that inhibit biofilm formation and bacterial growth, respectively, by at least 80% (i.e., ≧80%). The MBIC/MIC assay is formatted in a manner that is similar to the Microbroth dilution assays described by the Clinical and Laboratory Standards Institute (CLSI; formerly NCCLS) in protocol M7-A7. The growth conditions were optimized for biofilm growth in 96-well assay plates such that the resulting CV staining was within the linear range of detection. Therefore, the MBIC/MIC assay provided a stringent measure of anti-biofilm activity.
(§3) The assay was adapted for several biofilm-forming strains of S. epidermidis, S. aureus, Enterococcus faecalis, and Pseudomonas aeruginosa. Briefly, 96-well assay plates contained a two-fold dilution series for up to 8 compounds (one compound/row) and untreated controls (concentration range of 0.2 μM-100 μM). The assay plates were inoculated with the test bacterial species, e.g., S. epidermidis 18972 (0.5×TSB, 0.25% glucose) or S. aureus ATCC 35556 (0.5×TSB, 1% glucose). The inocula were prepared by diluting an overnight culture 1:100 in fresh media, which corresponds to approximately 5×10^6 cells/well. After inoculation, the assay plates were sealed with foil tape and incubated for 18 h-20 h at 37° C. The assay plates were processed, and the percent inhibition of growth (% INH-Growth) and percent inhibition of biofilm formation (% INH-Biofilm) were calculated as described above. […] Compounds with an MBIC≦10 μM and an MIC/MBIC ratio≧8 for either S. epidermidis or S. aureus were designated as validated hits.
(§4) Compounds were also tested for anti-biofilm activity against a strain of biofilm-forming, vancomycin-resistant Enterococcus faecalis strain (ATCC 51299), the Gram-negative biofilm-forming opportunistic pathogen Pseudomonas aeruginosa PAO1 ([…]), and a Gram-negative, biofilm-forming strain of Escherichia coli (ATCC 25922).

Test [2] has as its system Escherichia coli (ATCC 25922). The following applies: for MIC: Escherichia coli, ATCC25922. The method, then: as §1, §2, §3, §4
Test [3] relates to vancomycin-resistant Enterococcus faecalis strain (ATCC 51299). The following applies: for MIC: Enterococcus faecalis, ATCC51299. The method, then:
as §1, §2, §3, §4

Where two headings read alike, the source gives them in different places.

In general, MIC refers to the smallest concentration in the dilution series that meets the test's criterion for growth inhibition. In the case of `CCOc1cc(/C=C2\SC(=S)N(c3ccc(F)cc3)C2=O)ccc1O` [Compound 4, 3-(4-fluorophenyl)-5-(3-ethoxy-4-hydroxybenzylidene)-2-thioxothiazolidin-4-one], the MBIC entry in test [1] (P. aeruginosa strain PA01) is “≧100 μM”; in test [2] (E. coli strain 25922), “≧100 μM”; in test [3] (E. faecalis strain 51299) it was 12.5 µM. In addition, the MIC in test [1], in test [2] and in test [3] was ≥ 100 µM in each case.
As to `CCOc1cc(/C=C2\SC(=S)N(c3cccc(F)c3)C2=O)ccc1O` [Compound 8, 3-(3-fluorophenyl)-5-(3-ethoxy-4-hydroxybenzylidene)-2-thioxothiazolidin-4-one], the MBIC result is “≧100 μM” in test [1] (P. aeruginosa strain PA01), “≧100 μM” in test [2] (E. coli strain 25922) and 25 µM in test [3] (E. faecalis strain 51299). Besides, the MIC in test [1], in test [2] and in test [3] was ≥ 100 µM throughout.
Regarding `C=CCOc1cc(/C=C2\SC(=S)N(c3ccc(F)cc3)C2=O)ccc1O` [Compound 29, 3-(4-fluorophenyl)-5-(3-allyloxy-4-hydroxybenzylidene)-2-thioxothiazolidin-4-one], the MBIC result in test [1] (P. aeruginosa strain PA01) was “≧100 μM”; in test [2] (E. coli strain 25922), “≧100 μM”; in test [3] (E. faecalis strain 51299), 12.5 µM. The MIC in test [1] (P. aeruginosa strain PA01, read-out: MIC) was ≥ 100 µM; in test [2] (E. coli strain 25922, read-out: MIC), ≥ 100 µM; in test [3] (E. faecalis strain 51299, read-out: MIC), ≥ 100 µM.
For `CCOc1cc(/C=C2\SC(=S)N(c3cccc(C#N)c3)C2=O)ccc1O` [Compound 34, 3-(3-cyanophenyl)-5-(3-ethoxy-4-hydroxybenzylidene)-2-thioxothiazolidin-4-one], the MBIC entry was “≧100 μM” in test [1] (P. aeruginosa strain PA01), “≧100 μM” in test [2] (E. coli strain 25922) and 12.5 µM in test [3] (E. faecalis strain 51299). Also, the MIC in test [1], in test [2] and in test [3] was ≥ 100 µM each time.
`CCOc1cc(/C=C2\SC(=S)N(c3cccnc3)C2=O)ccc1O` [Compound 36, 3-(pyridin-3-yl)-5-(3-ethoxy-4-hydroxybenzylidene)-2-thioxothiazolidin-4-one]: the MBIC entry in test [1] (P. aeruginosa strain PA01) is “≧100 μM”; in test [2] (E. coli strain 25922) it was “≧100 μM”; in test [3] (E. faecalis strain 51299), 12.5 µM. The MIC in test [1], in test [2] and in test [3] was ≥ 100 µM each time.
Regarding `CCOc1cc(/C=C2\SC(=S)N(c3ccc(F)nc3)C2=O)ccc1O` [Compound 40, 3-(6-fluoropyridin-3-yl)-5-(3-ethoxy-4-hydroxybenzylidene)-2-thioxothiazolidin-4-one], the MBIC entry in test [1] (P. aeruginosa strain PA01) was “≧100 μM”; in test [2] (E. coli strain 25922), “≧100 μM”; in test [3] (E. faecalis strain 51299), 6.3 µM. Moreover, the MIC in test [1], in test [2] and in test [3] was ≥ 100 µM in each case.

The record behind these values is US20110098323A1, “INHIBITORS OF BACTERIAL BIOFILM FORMATION” (MICROBIOTIX, INC., priority 2009, published 2011).
